These results are taken from PMC8121762, “Peptidomics of enteroendocrine cells and characterisation of potential effects of a novel preprogastrin derived-peptide on glucose tolerance in lean mice” (Peptides, 2021).

Where no end group is shown, it is not given here.

The nature of the data set: Pharmacokinetics studies in mice (i.v. and s.c. bolus, plasma LC–MS/MS). In kind it is in vivo. Particulars: mouse; for AUC / bioavailability: both sexes, C57BL/6 N J, plasma LC–MS/MS; for AUC: tail vein blood over 90 min; for Clearance: s.c. On the procedure:
Male and female mice aged between 12–18 weeks old were used for these studies. Gast p59−79, ChgA 435−462a and Sst 25−36 were administered intravenously (i.v.) at 1 mg/kg and subcutaneously (s.c.) at various doses (see Fig. 7A, B and C for details on specific doses for each peptide). Blood samples were collected using EDTA coated microvette tubes (Starsedt, Leicester, UK) from the tail vein at various time points over 90 min. Blood was centrifuged (2000 g, 10 min, 4 °C) and the plasma separated. A 0.1 M sodium citrate (Sigma-Aldrich) buffer (adjusted to pH 3 with citric acid (Sigma-Aldrich)) was added to the plasma at a dilution of 1 in 10 to prevent degradation of Gast p59−79 and Sst 25−36. Plasma was stored -70 °C till extraction.
On the day of analysis, plasma samples were thawed, spiked with a stable isotope labelled version of Gast p59−79, ChgA 435−462a or Sst 25−36, and crashed with 200 μL 80 % ACN. After centrifuging, supernatants were removed and dried under gaseous nitrogen at 40 °C using a SPE Dry evaporator system (Biotage, Upsalla, Sweden). SPE was performed as described previously.
A Xevo TQ-XS triple quadrupole mass spectrometer coupled to H-class Aquity UPLC system enabled high throughput and targeted sample analysis. The column used was a Waters HSS T3 2.1 × 50 mm column at 60 °C and flowing at 350 μL/min. LC–MS/MS analysis was performed using positive ESI with a spray voltage of 3 kV, desolvation temperature 600°C, gas flow rate 1000 L/h and cone voltage of 40 V. Solvent A was 0.1 % FA in water (v/v) and Solvent B was 0.1 % FA in ACN (v/v). Each sample (40 μL per sample) was injected onto the column for 30 s with starting conditions set at 90 % A and 10 % B before the % B was increased to 50 % over the course of 3.5 min. The column was flushed with 90 % B for 1.5 min before initial conditions were restored. Total run time per sample was 5.5 min. Table 1 details the specifications used to quantify Gast p59−79, ChgA 435−462a, Sst 25−36 and their stable isotope labelled versions on a Xevo TQ-XS mass spectrometer.
Raw data files obtained on the Xevo TQ-XS triple quadrupole mass spectrometer were analysed using TargetLynx XS v4.2 software (Waters). Peptides were quantified by integrating the corresponding peaks and normalised to an internal standard if available. For pharmacokinetics studies, the concentration of peptide was estimated by comparing against a calibration line. SAAM II v2.2.1 (The Epsilon Group) with a Rosenbrock integrator and no maximum number of iterations was used to create a model for Gast p59−79 distribution and elimination upon single dose administration to mice.

As for “AEDQELESLSAIEAELEKVAHQLQALRR-NH2 [ChgA 435−462a]”, the AUC – broadly, concentration integrated over time – runs as follows: (iv, 1 mg/kg) 0.362 µg·h/mL; (sc, 1 mg/kg) 0.169 µg·h/mL; (sc, 3 mg/kg) 0.547 µg·h/mL. Further, the bioavailability – broadly, the share of a dose that reaches the circulation, judged against a reference dose that is usually intravenous – (sc, 1 mg/kg) was determined as 46.7% and the bioavailability (sc, 3 mg/kg) amounted to 50.4%. For the setting “estimated from PK data (SAAM II model), osmotic pump infusion”, the “mass delivery rate required to obtain steady state concentration of 1 nM” value was 0.29 mg/kg/day. The substance also registered a Clearance (1 mg/kg) of 5.92 mL/h/kg and a Clearance (3 mg/kg) of 5.48 mL/h/kg.

For APSDPRLRQFLQ [Sst 25−36], where the note is “sc, 10 mg/kg”, the AUC amounted to 0.0033 µg·h/mL. The “detection in plasma after s.c. injection” value (in vivo, sc, 10 mg/kg) is “only detectable at low concentrations”. For the same substance, the “half-life in vivo (in words)” value (pilot data) is “very short half-life”. Besides, the Clearance (10 mg/kg) came out at 3030 mL/h/kg.
